Experimental findings from ChEMBL document CHEMBL2417377, “Hit-to-lead optimization and kinase selectivity of imidazo[1,2-a]quinoxalin-4-amine derived JNK1 inhibitors” (Bioorg Med Chem Lett, 2013) are described below.

Common to all, as to conditions: PC-3
In test [1] the target is Mitogen-activated protein kinase 14 (Homo sapiens) (UniProt Q16539). The test is described as follows: Inhibition of p38alpha in human PC3 cell lysates at 10 uM using desthiobiotin-tagged ATP probe AX9989 followed by trypsinization by LC/MS analysis.
Chain of Mitogen-activated protein kinase 14 (Homo sapiens) (Q16539 whole entry): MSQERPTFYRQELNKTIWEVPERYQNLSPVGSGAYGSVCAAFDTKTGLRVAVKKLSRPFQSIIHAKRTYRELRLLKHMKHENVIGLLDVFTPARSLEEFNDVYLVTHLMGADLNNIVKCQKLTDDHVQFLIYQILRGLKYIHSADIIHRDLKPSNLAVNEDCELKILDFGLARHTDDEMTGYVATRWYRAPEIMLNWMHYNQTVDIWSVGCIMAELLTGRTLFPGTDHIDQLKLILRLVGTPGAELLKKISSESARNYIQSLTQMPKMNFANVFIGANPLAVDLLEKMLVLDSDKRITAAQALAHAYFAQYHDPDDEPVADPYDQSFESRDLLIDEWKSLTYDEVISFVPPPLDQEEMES
The target of test [2] is T1, Phosphatidylinositol 5-phosphate 4-kinase type-2 gamma (Homo sapiens) (UniProt Q8TBX8).
T1 sequence (whole entry): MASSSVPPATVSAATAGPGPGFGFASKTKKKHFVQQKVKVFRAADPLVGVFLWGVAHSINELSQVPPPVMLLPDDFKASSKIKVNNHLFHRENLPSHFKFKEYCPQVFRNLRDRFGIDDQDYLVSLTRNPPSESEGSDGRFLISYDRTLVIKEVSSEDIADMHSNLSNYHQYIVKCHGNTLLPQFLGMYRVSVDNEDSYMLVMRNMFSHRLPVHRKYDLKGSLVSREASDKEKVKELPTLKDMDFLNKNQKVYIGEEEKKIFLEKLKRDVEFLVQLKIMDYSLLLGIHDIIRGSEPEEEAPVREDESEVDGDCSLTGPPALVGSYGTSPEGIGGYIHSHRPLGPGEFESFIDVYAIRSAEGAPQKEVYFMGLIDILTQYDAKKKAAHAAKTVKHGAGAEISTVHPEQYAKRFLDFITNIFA
The test is described as follows: Inhibition of PIP4K2C in human PC3 cell lysates at 10 uM using desthiobiotin-tagged ATP probe AX9989 followed by trypsinization by LC/MS analysis.

Test [3] addresses Serine/threonine-protein kinase Chk2 (Homo sapiens) (UniProt O96017). The test is described as follows: Inhibition of CHK2 in human PC3 cell lysates at 10 uM using desthiobiotin-tagged ATP probe AX9989 followed by trypsinization by LC/MS analysis.
Test [4] deals with CaM kinase II (Homo sapiens) (UniProt Q13557+Q13555+Q13554+Q9UQM7). The test is described as follows: Inhibition of CaMK2alpha/CaMK2beta/CaMK2delta/CaMK2gamma in human PC3 cell lysates at 10 uM using desthiobiotin-tagged ATP probe AX9989 followed by trypsinization by LC/MS analysis. It counts as protein assay.
The target in test [5] is Tyrosine-protein kinase Fer (Homo sapiens) (UniProt P16591). Description: Inhibition of FER in human PC3 cell lysates at 10 uM using desthiobiotin-tagged ATP probe AX9989 followed by trypsinization by LC/MS analysis.
Chain of Tyrosine-protein kinase Fer (Homo sapiens) (P16591 whole entry, looked up): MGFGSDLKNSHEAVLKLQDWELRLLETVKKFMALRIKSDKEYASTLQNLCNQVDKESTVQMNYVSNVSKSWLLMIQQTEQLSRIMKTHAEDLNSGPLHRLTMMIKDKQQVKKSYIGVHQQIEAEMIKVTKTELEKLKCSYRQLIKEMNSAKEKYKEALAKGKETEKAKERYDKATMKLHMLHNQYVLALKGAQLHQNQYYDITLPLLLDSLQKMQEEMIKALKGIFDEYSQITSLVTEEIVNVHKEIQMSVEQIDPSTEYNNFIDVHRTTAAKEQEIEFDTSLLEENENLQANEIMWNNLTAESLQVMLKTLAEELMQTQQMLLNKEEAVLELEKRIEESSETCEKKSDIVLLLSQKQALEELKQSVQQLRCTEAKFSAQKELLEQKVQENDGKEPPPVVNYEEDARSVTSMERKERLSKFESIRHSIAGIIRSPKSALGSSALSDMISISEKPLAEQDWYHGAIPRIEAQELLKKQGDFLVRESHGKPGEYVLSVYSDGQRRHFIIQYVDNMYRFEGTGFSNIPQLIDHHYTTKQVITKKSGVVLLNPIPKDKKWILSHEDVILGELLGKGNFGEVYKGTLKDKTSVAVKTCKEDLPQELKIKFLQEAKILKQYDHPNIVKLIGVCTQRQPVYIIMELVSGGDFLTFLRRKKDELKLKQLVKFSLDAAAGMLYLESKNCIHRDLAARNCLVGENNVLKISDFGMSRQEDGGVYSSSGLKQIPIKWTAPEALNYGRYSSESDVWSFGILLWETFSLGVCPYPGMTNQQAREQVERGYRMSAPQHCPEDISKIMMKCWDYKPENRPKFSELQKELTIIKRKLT
Test [6] deals with T2, Serine/threonine-protein kinase Nek9 (Homo sapiens) (UniProt Q8TD19).
T2 sequence (whole entry): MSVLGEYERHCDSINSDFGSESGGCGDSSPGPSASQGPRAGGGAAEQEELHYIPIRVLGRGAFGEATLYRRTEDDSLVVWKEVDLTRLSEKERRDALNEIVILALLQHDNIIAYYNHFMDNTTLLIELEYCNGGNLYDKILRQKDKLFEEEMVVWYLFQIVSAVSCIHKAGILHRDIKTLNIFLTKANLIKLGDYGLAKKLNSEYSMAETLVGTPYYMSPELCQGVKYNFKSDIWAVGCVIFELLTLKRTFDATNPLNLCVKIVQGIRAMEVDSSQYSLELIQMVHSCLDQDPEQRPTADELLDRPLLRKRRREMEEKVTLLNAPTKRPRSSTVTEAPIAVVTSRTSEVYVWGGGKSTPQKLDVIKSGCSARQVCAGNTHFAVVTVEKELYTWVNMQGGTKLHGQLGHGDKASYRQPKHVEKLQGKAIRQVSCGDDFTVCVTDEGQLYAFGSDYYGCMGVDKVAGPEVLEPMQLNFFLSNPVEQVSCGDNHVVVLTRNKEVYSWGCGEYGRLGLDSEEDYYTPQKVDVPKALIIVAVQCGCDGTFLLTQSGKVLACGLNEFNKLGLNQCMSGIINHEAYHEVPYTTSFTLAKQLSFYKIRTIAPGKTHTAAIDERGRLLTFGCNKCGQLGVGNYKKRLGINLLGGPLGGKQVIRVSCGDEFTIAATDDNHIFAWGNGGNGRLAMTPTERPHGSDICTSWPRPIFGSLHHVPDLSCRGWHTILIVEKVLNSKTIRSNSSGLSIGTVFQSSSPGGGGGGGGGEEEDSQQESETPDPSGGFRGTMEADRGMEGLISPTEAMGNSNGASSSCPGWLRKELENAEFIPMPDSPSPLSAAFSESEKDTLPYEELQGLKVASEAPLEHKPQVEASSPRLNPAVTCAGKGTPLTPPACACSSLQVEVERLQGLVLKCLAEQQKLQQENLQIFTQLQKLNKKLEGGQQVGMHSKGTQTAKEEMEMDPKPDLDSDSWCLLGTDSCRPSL
The test is described as follows: Inhibition of NEK9 in human PC3 cell lysates at 10 uM using desthiobiotin-tagged ATP probe AX9989 followed by trypsinization by LC/MS analysis.

Test [7] deals with T3, Scaffold protein ILK (Homo sapiens) (UniProt Q13418).
T3 sequence (whole entry): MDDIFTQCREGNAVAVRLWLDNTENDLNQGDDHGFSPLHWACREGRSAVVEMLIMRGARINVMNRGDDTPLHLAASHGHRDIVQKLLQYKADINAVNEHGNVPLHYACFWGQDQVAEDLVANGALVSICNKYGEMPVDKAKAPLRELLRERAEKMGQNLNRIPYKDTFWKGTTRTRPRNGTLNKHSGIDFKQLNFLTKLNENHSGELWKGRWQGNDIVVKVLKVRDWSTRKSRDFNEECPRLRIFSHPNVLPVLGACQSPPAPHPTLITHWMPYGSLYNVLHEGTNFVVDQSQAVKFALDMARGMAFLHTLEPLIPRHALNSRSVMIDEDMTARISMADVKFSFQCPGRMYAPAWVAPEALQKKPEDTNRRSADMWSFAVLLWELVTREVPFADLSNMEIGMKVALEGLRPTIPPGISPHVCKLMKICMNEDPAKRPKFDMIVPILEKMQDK
Description: Inhibition of ILK in human PC3 cell lysates at 10 uM using desthiobiotin-tagged ATP probe AX9989 followed by trypsinization by LC/MS analysis.

Test [8] concerns the target Cyclin-dependent kinase 9 (Homo sapiens) (UniProt P50750). Description: Inhibition of CDK9 in human PC3 cell lysates at 10 uM using desthiobiotin-tagged ATP probe AX9989 followed by trypsinization by LC/MS analysis.
Test [9] has as its target Microtubule-associated serine/threonine-protein kinase 3 (Homo sapiens, UniProt O60307). Description: Inhibition of MAST3 in human PC3 cell lysates at 10 uM using desthiobiotin-tagged ATP probe AX9989 followed by trypsinization by LC/MS analysis.
Test [10] deals with Protein kinase C alpha type (Homo sapiens) (UniProt P17252). Description: Inhibition of PKCalpha in human PC3 cell lysates at 10 uM using desthiobiotin-tagged ATP probe AX9989 followed by trypsinization by LC/MS analysis.
In test [11] the target is Tyrosine-protein kinase CSK (Homo sapiens) (UniProt P41240). Description: Inhibition of CSK in human PC3 cell lysates at 10 uM using desthiobiotin-tagged ATP probe AX9989 followed by trypsinization by LC/MS analysis.
Chain of Tyrosine-protein kinase CSK (Homo sapiens) (P41240 2-450 limits assumed): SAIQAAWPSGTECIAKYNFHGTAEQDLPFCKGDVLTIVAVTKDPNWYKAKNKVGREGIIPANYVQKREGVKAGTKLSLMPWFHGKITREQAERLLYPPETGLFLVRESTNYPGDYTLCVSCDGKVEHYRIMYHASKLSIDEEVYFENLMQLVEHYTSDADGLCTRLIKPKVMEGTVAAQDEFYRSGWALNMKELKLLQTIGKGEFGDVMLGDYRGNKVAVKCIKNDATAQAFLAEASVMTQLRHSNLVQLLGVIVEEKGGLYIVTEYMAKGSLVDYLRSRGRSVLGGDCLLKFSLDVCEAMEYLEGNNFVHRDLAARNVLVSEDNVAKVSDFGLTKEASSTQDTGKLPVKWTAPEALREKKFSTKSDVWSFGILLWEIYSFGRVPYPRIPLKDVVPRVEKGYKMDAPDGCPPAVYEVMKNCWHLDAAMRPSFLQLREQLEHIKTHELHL

The structures appear in SMILES notation.

Chain of Cyclin-dependent kinase 9 (Homo sapiens) (P50750 whole entry): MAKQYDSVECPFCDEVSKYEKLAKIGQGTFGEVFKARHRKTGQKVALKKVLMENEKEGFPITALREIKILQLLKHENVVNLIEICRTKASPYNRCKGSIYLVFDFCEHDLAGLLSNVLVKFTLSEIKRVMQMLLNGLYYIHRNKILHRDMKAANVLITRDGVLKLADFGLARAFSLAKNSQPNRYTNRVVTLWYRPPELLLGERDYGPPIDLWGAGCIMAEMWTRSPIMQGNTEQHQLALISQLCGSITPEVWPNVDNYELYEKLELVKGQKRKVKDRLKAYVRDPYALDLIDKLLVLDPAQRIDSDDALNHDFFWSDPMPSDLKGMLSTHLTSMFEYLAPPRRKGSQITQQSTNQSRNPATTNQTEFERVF
Chain of Microtubule-associated serine/threonine-protein kinase 3 (O60307 whole entry): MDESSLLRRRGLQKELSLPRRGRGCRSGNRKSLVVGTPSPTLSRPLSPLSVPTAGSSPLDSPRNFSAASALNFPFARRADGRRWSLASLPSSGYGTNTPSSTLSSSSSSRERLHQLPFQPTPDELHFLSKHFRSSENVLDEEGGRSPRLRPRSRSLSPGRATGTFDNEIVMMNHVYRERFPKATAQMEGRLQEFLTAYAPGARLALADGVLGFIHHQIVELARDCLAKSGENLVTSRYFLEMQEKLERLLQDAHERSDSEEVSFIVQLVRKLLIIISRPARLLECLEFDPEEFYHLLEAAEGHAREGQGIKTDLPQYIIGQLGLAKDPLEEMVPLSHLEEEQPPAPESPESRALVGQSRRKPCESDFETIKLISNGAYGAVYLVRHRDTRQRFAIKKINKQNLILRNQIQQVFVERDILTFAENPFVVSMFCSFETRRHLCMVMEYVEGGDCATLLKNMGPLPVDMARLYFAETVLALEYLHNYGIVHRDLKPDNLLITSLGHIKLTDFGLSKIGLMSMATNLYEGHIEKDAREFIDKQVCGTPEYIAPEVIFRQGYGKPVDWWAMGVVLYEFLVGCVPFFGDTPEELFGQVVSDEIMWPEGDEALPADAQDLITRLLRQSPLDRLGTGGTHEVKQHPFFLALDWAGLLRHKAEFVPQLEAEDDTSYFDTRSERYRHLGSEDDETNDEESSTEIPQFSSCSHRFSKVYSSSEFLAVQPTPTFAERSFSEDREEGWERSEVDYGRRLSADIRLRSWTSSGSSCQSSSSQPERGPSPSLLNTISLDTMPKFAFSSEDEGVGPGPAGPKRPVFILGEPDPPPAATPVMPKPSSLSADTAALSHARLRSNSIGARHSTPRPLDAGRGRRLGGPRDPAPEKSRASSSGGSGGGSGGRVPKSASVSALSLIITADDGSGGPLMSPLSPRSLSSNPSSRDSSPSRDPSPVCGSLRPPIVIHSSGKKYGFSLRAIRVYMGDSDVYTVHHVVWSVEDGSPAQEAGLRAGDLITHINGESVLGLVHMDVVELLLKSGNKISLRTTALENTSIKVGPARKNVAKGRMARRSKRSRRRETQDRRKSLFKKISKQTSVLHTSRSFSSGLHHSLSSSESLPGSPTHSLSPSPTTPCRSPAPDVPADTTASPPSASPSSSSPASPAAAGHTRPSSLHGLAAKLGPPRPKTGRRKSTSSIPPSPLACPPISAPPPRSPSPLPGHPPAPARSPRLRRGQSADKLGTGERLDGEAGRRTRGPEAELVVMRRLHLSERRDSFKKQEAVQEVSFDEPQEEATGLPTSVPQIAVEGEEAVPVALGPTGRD
Chain of Serine/threonine-protein kinase Chk2 (Homo sapiens) (O96017 whole entry): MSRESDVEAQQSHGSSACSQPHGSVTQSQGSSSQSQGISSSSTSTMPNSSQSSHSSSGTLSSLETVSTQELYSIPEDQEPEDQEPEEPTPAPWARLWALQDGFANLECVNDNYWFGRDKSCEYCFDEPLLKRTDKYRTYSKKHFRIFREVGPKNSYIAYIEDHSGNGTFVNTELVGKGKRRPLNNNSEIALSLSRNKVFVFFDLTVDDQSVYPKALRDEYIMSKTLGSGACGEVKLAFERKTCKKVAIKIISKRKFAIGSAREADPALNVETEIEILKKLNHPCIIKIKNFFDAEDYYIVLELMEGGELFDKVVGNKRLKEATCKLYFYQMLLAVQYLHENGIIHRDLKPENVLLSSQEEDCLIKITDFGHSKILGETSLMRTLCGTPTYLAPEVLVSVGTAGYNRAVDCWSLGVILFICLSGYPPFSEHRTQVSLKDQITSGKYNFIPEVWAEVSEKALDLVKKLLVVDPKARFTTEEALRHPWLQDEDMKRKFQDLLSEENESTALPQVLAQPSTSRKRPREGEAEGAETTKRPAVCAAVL

With `O=C(NC1(c2ccc(F)cc2)CC1)c1ccc2nc(N[C@H]3CC[C@H](O)CC3)c3nccn3c2c1`, the inhibition in test [1], in [2], in test [3], in test [4], in test [5] and in [6] was less than 35% throughout. For the same compound, the inhibition (as a rule, the change of the read-out against control, counted positive when it falls) in test [7] was less than 35%; in [8], less than 35%; in [9] it was 97.6%; in test [10] it was less than 35%; in [11] it was less than 35%.

Consider `O=C(NC1(Cc2ccc(F)cc2)CC1)c1ccc2nc(N[C@H]3CC[C@H](O)CC3)c3nccn3c2c1`, for which the inhibition in test [1], in [2], in [3], in test [4], in [5] and in test [6] was less than 35% in each case. Also, the inhibition in test [7], in [8], in [9], in [10] and in test [11] was less than 35% in each case.
